In brackets after ≈: the same amount, converted by molar mass.
Assays:
[1] = Solubility of the drug alone (crystalline or amorphous); conditions: for solubility: thermodynamic from solid
[2] = Dissolution test of amorphous Drug 1 in PBS with varying HPMCAS-MF concentration; format: physicochemical; conditions: amorphous Drug 1 10 mg/mL added, PBS 37°C
Method: First, HPMCAS-MF was dissolved in PBS with stirring at 37° C. and 1.5 mL of this solution was placed in a microcentrifuge tube.

[3] = dispersion of YM022 in HPMC and polyoxyethylene hydrogenated castor oil administered to aqueous solution; cited from earlier work
[4] = rats, colloidal solution; cited from earlier work
[5] = format: physicochemical
Method: To determine the composition of the polymer/drug assemblies, solutions formed from the dispersions of Example 30 and Example 31 in PBS were analyzed using HPLC and NMR, as described in Example 4. […] To measure the free drug concentration using NMR, 2 wt % NaTC/POPC was added to the solution. By measuring the amount of drug that partitioned into NaTC/POPC micelles, the concentration of free drug in PBS was calculated using the equation: […]
where DM is the concentration of drug in micelles (measured by NMR), Kp is the partition coefficient for drug partitioning between water and micelles (30,000), Df is the free drug concentration in PBS, and VM is the volume ratio occupied by micelles in the PBS solution (cm^3 micelles/cm^3 solution=0.021). […] The amount of polymer contained in the polymer/drug assemblies was calculated by subtracting the free polymer and the polymer in the precipitate from the total polymer added to solution (contained in the solid dispersions). […]
The dispersions of Examples 30 and 31 were added to PBS with varying amounts of NaTC/POPC, and the concentration of drug in NaTC/POPC micelles was measured by NMR spectroscopy. […]
The free drug concentration with no micelles present was calculated as follows. […]
Aqueous solutions formed from the solid dispersion of Example 40 were analyzed using DLS and NMR, as described in Examples 3 and 4. […]

[6] = HPMCAS-MF 0 mg/mL (amorphous drug alone)

## Cc1ncccc1CNC(=O)c1ccc2c(c1)CC[C@@H]1C[C@@](O)(CCC(F)(F)F)CC[C@@]21Cc1ccccc1 [Drug 3, 2-phenanthrenecarboxamide, 4b,5,6,7,8,8a,9,10-octahydro-7-hydroxy-N-[(2-methyl-3-pyridinyl)methyl]-4b-(phenylmethyl)-7-(3,3,3-trifluoropropyl)-, (4bS,7S,8aR)-]
[1]; Solubility of Drug 3, crystalline Drug 3
  solubility: 0.004 µg/mL (≈ 0.00745 µM)

## O=C(N[C@@H](Cc1ccccc1)[C@@H](O)C(=O)N1C[C@@H](O)[C@@H](O)C1)c1cc2cc(Cl)ccc2[nH]1 [Drug 1, 5-chloro-1H-indole-2-carboxylic acid [(1S)-benzyl-3-((3R, 4S)-dihydroxypyrroldin-1-yl-)-(2R)-hydroxy-3-oxypropyl] amide]
[2]; [6]
  HPLC Total Dissolved Drug 1 at 90 min.: 224 µg/mL
  HPLC Total Dissolved Drug 1 at 1200 min.: 196 µg/mL
[2]; HPMCAS-MF 0.5 mg/mL
  HPLC Total Dissolved Drug 1 at 90 min.: 447 µg/mL
  HPLC Total Dissolved Drug 1 at 1200 min.: 289 µg/mL
[2]; HPMCAS-MF 1 mg/mL
  HPLC Total Dissolved Drug 1 at 90 min.: 487 µg/mL
  HPLC Total Dissolved Drug 1 at 1200 min.: 203 µg/mL
[2]; HPMCAS-MF 5 mg/mL
  HPLC Total Dissolved Drug 1 at 90 min.: 4928 µg/mL
  HPLC Total Dissolved Drug 1 at 1200 min.: 1550 µg/mL
[2]; HPMCAS-MF 10 mg/mL
  HPLC Total Dissolved Drug 1 at 90 min.: 7453 µg/mL
  HPLC Total Dissolved Drug 1 at 1200 min.: 5431 µg/mL
[2]; HPMCAS-MF 20 mg/mL
  HPLC Total Dissolved Drug 1 at 90 min.: 8099 µg/mL
  HPLC Total Dissolved Drug 1 at 1200 min.: 7451 µg/mL

## Cc1cccc(NC(=O)N[C@@H]2N=C(c3ccccc3)c3ccccc3N(CC(=O)c3ccccc3C)C2=O)c1 [YM022]
[3]
  Mean diameter of colloidal particles: 160 nm
[4]
  Absorption on oral administration: good absorption

## CCOC(=O)N1c2ccc(C(F)(F)F)cc2C(N(Cc2cc(C(F)(F)F)cc(C(F)(F)F)c2)C(=O)OC)CC1CC (stereo not drawn) [Drug 2, 4-[(3,5-bis-trifluoromethyl-benzyl)-methoxycarbonyl-amino]-2-ethyl-6-trifluoromethyl-3,4-dihydro-2H-quinoline-1-carboxylic acid ethyl ester]
[5]
  Kp, partition coefficient for drug partitioning between water and micelles: 30,000
[5]; crystalline Drug 2, value obtained in a separate experiment
  Drug 2 Concentration, NaTC/POPC Conc. 0 wt %: 0.01 µg/mL
[1]; PBS with 2% NaTC/POPC, fassgf or other biorelevant, Solubility of crystalline Drug 2 in 2% NaTC/POPC in PBS, 2% NaTC/POPC in PBS
  solubility: 6 µg/mL (≈ 9.99 µM)
[1]; PBS, Solubility of the crystalline Drug 2
  solubility: 0.01 µg/mL (≈ 0.0167 µM)
[1]; aqueous solution without micelles, Solubility of Drug 2 in aqueous solution without micelles, crystalline Drug 2, separate experiments
  solubility: ~0.01 µg/mL (≈ 0.0167 µM)
[1]; crystalline Drug 2, separate experiments
  Solubility of Drug 2 in aqueous solution without micelles: approximately 0.010 μg/mL

From patent publication US20030170309A1, “Pharmaceutical compositions containing polymer and drug assemblies” (priority 2001, published 2003)
